Values quoted from earlier work as cited in patent US20100028446A1, “TRANSPORT OF DRUGS VIA THE BLOOD-BRAIN BARRIER BY MEANS OF APOLIPOPROTEINS” (priority 2007, published 2010).

Conditions: loaded on hydrophilic-protein nanoparticles coupled with apolipoprotein E

Substance: Dalargin
- transport across the blood-brain barrier: successfully transported across the blood-brain barrier
